Each block holds one molecule with its values, some of them ahead of it.
Experiments:
[1] = when the dose and administration method are not correctly chosen; cited from earlier work
[2] = acidic conditions; cited from earlier work
[3] = Utilization test in vivo, intravenous instillation to healthy volunteers (blood sugar, insulin, urine); design: species or system human; conditions: for dose excreted: urine, 50000 mg, read-out: amount of glucose in the urine
Description: A neotrehalose specimen prepared by the method in Example A1-2 was treated to remove pyrogens in the usual manner, and 50 g of the resultant neotrehalose specimen was in accordance with the method reported in Matsuzaki, Yakubutsu Ryoho, Vol.6, No.2, pp.65-72 (1973), formulated as a 10 w/v % aqueous solution which was then intravenously administered to 2 healthy volunteers by instillation. Their blood was sampled at prescribed time intervals and blood sugar and insulin levels were measured, along with the amount of neotrehalose secreted in their urine. As controls, glucose and maltose were used.

[4] = prior art, Japanese patent publications; cited from earlier work
[5] = Digestion test in vitro, enzyme of small intestinal mucous membrane; assay type: in vitro ADME; conditions: small intestinal mucosal enzyme, Tables 1 and 2, read-out: Hydrolysis rate
Description: (§1) In accordance with the method reported in K. Okada et al., Journal of Japanese Society of Nutrition and Food Science, Vol.43, No.1, pp.23-29 (1990), a crystalline neotrehalose specimen formulated by the method in Example A1-2 was prepared as an aqueous solution which was then tested for its digestibility in vitro: The digestibility was determined with the following equation and expressed as hydrolysis rate (%): [formula]
Similarly as above, several kinds of disaccharides were tested for their digestibility using the enzyme of the small intestinal mucous membrane.

amylases = conditions: Japanese Patent Laid-Open No.240,758/88; cited from earlier work
[6] = Utilization test in vivo, oral administration to healthy volunteers (blood sugar and insulin); design: species or system human
From the text: In accordance with the method described in H. Atsuji et al., Journal of Clinical Nutrition, Vol.41, Vol.2, pp.200-208 (1972), 30 g of a neotrehalose specimen was formulated as a 20 w/v % aqueous solution which was then orally administered to 3 healthy volunteers (men) and their blood was sampled at prescribed time intervals and tested for blood sugar and insulin levels. As a control, glucose was used.

[7] = Digestion test in vitro, salivary amylase; assay type: in vitro ADME; conditions: Table 1, read-out: Hydrolysis rate
Description: as §1

[8] = Digestion test in vitro, gastric juice; assay type: in vitro ADME; conditions: Table 1, read-out: Hydrolysis rate
Description: as §1

[9] = Digestion test in vitro, amylopsin; assay type: in vitro ADME; conditions: Table 1, read-out: Hydrolysis rate
Description: as §1

dd mice = test: Acute toxicity test, oral, mice; assay type: in vivo, mouse; conditions: 7 week-old dd mice
From the text: A crystalline neotrehalose specimen, prepared by the method in Example A1-2, was orally administered to 7 week-old dd mice as an acute toxicity test. […] Therefore, the toxicity of the tested substance appears to be extremely low.

[10] = human, 50 g as 10 w/v % aqueous solution, intravenous instillation, 2 healthy volunteers
[11] = 30 g as 20 w/v % aqueous solution, oral, 3 healthy volunteers, about
[12] = 50 g as 10 w/v % aqueous solution, intravenous instillation, 2 healthy volunteers

SMILES: OC[C@@H](O)[C@@H](O)[C@H](O)[C@@H](O)CO [sorbitol]
diarrhea [1]: acute diarrhea

SMILES: OC[C@H]1O[C@@](CO)(O[C@H]2O[C@H](CO)[C@@H](O)[C@H](O)[C@H]2O)[C@@H](O)[C@@H]1O [Sucrose]
hydrolysis into glucose and fructose [2]: readily hydrolyzed

dose excreted [3, 10]: < 20%
SMILES: OC[C@H]1O[C@H](O[C@H]2[C@H](O)[C@@H](O)[C@H](O)O[C@@H]2CO)[C@H](O)[C@@H](O)[C@@H]1O [Maltose, reference compound]

SMILES: OC[C@@H](O)[C@@H](O[C@H]1O[C@H](CO)[C@@H](O)[C@H](O)[C@H]1O)[C@H](O)[C@@H](O)CO [maltitol]
metabolism and utilization in vivo [4]: not readily metabolized and utilized in vivo

SMILES: OC[C@@H](O)[C@H](O)[C@@H](O)CO [xylitol]
diarrhea [1]: acute diarrhea

metabolised [5]: 0.1%
SMILES: OC[C@H]1O[C@@H](O[C@@H]2O[C@H](CO)[C@@H](O)[C@H](O)[C@H]2O)[C@H](O)[C@@H](O)[C@@H]1O [Isotrehalose (β,β-trehalose), β,β-trehalose]

metabolised [5]: 0.4%
SMILES: OC[C@H]1O[C@H](O[C@H]2O[C@H](CO)[C@@H](O)[C@H](O)[C@H]2O)[C@H](O)[C@@H](O)[C@@H]1O [Trehalose (α,α-trehalose), α,α-trehalose]
metabolism and utilization in vivo [4]: not readily metabolized and absorbed by the human body
hydrolysis by enzymes such as amylases (amylases): not readily hydrolyzed

SMILES: OC[C@H]1O[C@@H](O[C@H]2O[C@H](CO)[C@@H](O)[C@H](O)[C@H]2O)[C@H](O)[C@@H](O)[C@@H]1O [neotrehalose, O-α-D-glucopyranosyl β-D-glucopyranoside]
time of maximum value of blood sugar level after oral administration [6, 11]: 0.5 to 1 h
time of maximum value of insulin level after oral administration [6, 11]: 0.5 to 1 h
behaviour of blood sugar and insulin levels compared with glucose ([6]; 30 g oral, control glucose): behaved similarly as glucose
metabolised [7]: 0%
metabolised [8]: 0%
metabolised [9]: 0%
blood sugar level [3, 12]: slightly increased
insulin level [3, 12]: did not greatly increase
dynamics of blood sugar and insulin compared with maltose ([3]; 50 g intravenous, controls glucose and maltose): the same dynamics as maltose
dose excreted [3, 10]: < 20%
metabolised [5]: 43%
toxicity (dd mice): extremely low
highest administered dose without animal death (dd mice; difficult to administer a higher dose): 5 g
animal death (dd mice; up to 5 g): no animal death

blood sugar level ([3]; human, in vivo, iv): greatly increased
insulin level ([3]; human, in vivo, iv): greatly increased
dose excreted [3, 10]: < 10%
SMILES: OC[C@H]1OC(O)[C@H](O)[C@@H](O)[C@@H]1O (stereo partly drawn) [glucose, reference compound]

SMILES: OC[C@@H](O)[C@@H](O[C@@H]1O[C@H](CO)[C@H](O)[C@H](O)[C@H]1O)[C@H](O)[C@@H](O)CO [lactitol]
metabolism and utilization in vivo [4]: not readily metabolized and utilized in vivo
